Assay results taken from PubChem BioAssay AID1996.
Converted amounts (≈) assume the structure as drawn.

Details: buffer; pH 7.4; 200.0 µM

Compound | solubility kinetic [µg/mL]
O=S(=O)(NCc1csc(-c2cccs2)n1)c1ccccc1 | 40.6 (≈ 121 µM)
N#CCCN(C(=O)COC(=O)CCc1ccccc1)c1ccccc1 | 44.8 (≈ 133 µM)
CN1C(=O)/C(=C\c2ccco2)N=C1c1ccc(Cl)cc1Cl | 33 (≈ 103 µM)
CC(=O)Nc1nc2c(C)c(Cl)ccc2s1 | < 0.3
Cc1cc(C)n2nc(C(=O)OCC(=O)Nc3ccc(C)c(F)c3)nc2n1 | > 53.6
O=C1Nc2ccccc2N=C(c2ccccc2)c2ccccc21 | 0.9 (≈ 3.02 µM)
Cc1ccc2c(C)c(C(=O)N(C)Cc3nccn3C)oc2c1C | > 46.7
Cc1cccc(NC(=O)COC(=O)C2COc3ccccc3O2)c1C (stereo not given) | > 51.2
c1ccc(-c2nccc(-c3ccc4c(c3)OCO4)n2)cc1 | < 0.3
O=C(CCl)Nc1c2c(nn1-c1ccccc1)CSC2 | > 44.1
CC(=O)Nc1ccc(NC(=O)N(c2ccccc2)c2ccccc2)cc1 | 6.4 (≈ 18.5 µM)
CCOC(=O)c1ccc(CN2C(=O)c3ccccc3S2(=O)=O)cc1 | 0.9 (≈ 2.61 µM)
O=[N+]([O-])c1ccc2c(c1)nc(CO)n2Cc1ccccc1 | 9.3 (≈ 32.8 µM)
CCC(NC(=S)NC1CCCCC1)c1ccccc1 (stereo not given) | 3.8 (≈ 13.7 µM)
Cc1c(C)n(C)c2ccc(C(=O)NCCc3ccco3)cc12 | > 44.5
Cc1ccc(S(=O)(=O)N2CC=C(C(=O)NCCC(C)C)CC2)cc1 | 41.7 (≈ 119 µM)
O=S(=O)(c1ccccc1)c1cnc(-c2ccccc2)nc1N1CCCC1 | < 0.3
O=C(CCN1C(=O)C2CC=CCC2C1=O)OCC(=O)c1ccc(F)cc1 (stereo not given) | > 53.9
Cc1cc(NC(=O)CN(C)CC(=O)Nc2ccc(Cl)cc2)no1 | > 50.5
COc1cc(C)ccc1OCC(=O)OCC(=O)c1[nH]c(C)c(C(C)=O)c1C | 13.5 (≈ 36.2 µM)
O=C(O)/C=C/C(=O)Nc1ccc(Cc2ccc(NC(=O)/C=C/C(=O)O)cc2)cc1 | 58 (≈ 147 µM)
O=C(CN1CCCCCC1)NCc1ccccc1 | 34.8 (≈ 141 µM)
CCCn1c(SCC(=O)NC)nc2sc3c(c2c1=O)CCC3 | 5.5 (≈ 16.3 µM)
CNC(=S)/N=C/NOCc1c(Cl)cccc1Cl | 9.5 (≈ 32.5 µM)

Compound | solubility kinetic [µg/mL]
Cc1cc(=O)oc2cc(N3C(=O)CC(Cc4ccccc4)C3=O)ccc12 (stereo not given) | 8.3 (≈ 23.9 µM)
COc1cc(OC)c(NC(=O)C2CCCO2)cc1Cl (stereo not given) | > 42.9
NC(=O)COC(=O)c1cccc(S(=O)(=O)N2CCCCC2)c1 | > 49
CCCc1nc2c(=O)n(C)c(=O)nc-2n(C)n1 | > 35.3
Cc1cccc(Nc2nnc(SC3CCOC3=O)s2)c1C (stereo not given) | > 48.2
CCCCCCC(=O)N(O)C1CC(=O)N(c2ccc(F)cc2)C1=O (stereo not given) | > 50.5
CSc1ncccc1C(=O)NCC(c1ccco1)N1CCCCC1 (stereo not given) | > 51.8
Cc1ccc(-c2csc(CC(N)=O)n2)cc1 | > 34.8
CCCCN(C(C)=O)c1ccc(S(=O)(=O)NC2=NCCCCC2)cc1NC(C)=O | > 63.4
Cn1c(O)c(/C=C2\C=Nc3ccc(Br)cc32)c(=O)n(C)c1=O | 0.9 (≈ 2.48 µM)
Cc1sc(NC(=S)NC(=O)c2ccco2)c(C#N)c1C | 1.1 (≈ 3.6 µM)
Cc1csc(SCC(=O)NCc2ccccc2)n1 | > 41.8
O=C(N/N=C/c1ccc2nccnc2c1)c1ccncc1 | > 41.6
Cc1ccc(C)c(Nc2c([N+](=O)[O-])c(=O)oc3ccccc23)c1 | 2.4 (≈ 7.73 µM)
CCOc1ccc(Cc2onc3c2C(=O)CCC3)cc1OCC | 45.4 (≈ 144 µM)
Cc1cc(C)nc(N2CCCC(C(=O)NC(C)C)C2)n1 (stereo not given) | 41.1 (≈ 149 µM)
CC(OC(=O)c1ccco1)C(=O)Nc1nc(-c2ccccc2)cs1 (stereo not given) | 4.5 (≈ 13.1 µM)
N#Cc1c(N)c(C(=O)c2ccccc2)n2ccccc12 | 31.4 (≈ 120 µM)
Cc1ccccc1S(=O)(=O)/N=C(/Nc1nc2ccccc2s1)c1ccccc1 | 1.1 (≈ 2.7 µM)
COC(=O)c1c(Sc2ccccc2)c2ccccc2n1C | < 0.6
Cc1ccc(SC(C)C(=O)N2CCN(c3ccccc3)CC2)cc1 (stereo not given) | 34.9 (≈ 102 µM)
NC(=O)C1(C(N)=O)OC1c1ccc(Cl)cc1Cl (stereo not given) | > 41.3
Cc1[nH]c2ccccc2c1C(=O)CN1CC(C)CC(C)C1 (stereo not given) | > 42.7
CCOc1ccc(C(=O)O/N=C(\N)c2ccccn2)cc1OCC | 21.4 (≈ 65 µM)

Compound | solubility kinetic [µg/mL]
Nc1c(C(=O)[O-])sc2nc3c(cc12)CCCC3 | 23.2
CCN(CC(=O)NCc1cccs1)C(=O)Cc1ccc(Cl)c(Cl)c1 | > 57.8
CC1(C)Cc2cccc(C(=O)Nc3ccc(F)cc3F)c2O1 | 0.7 (≈ 2.31 µM)
Cc1nnc(NC(=O)CS(=O)(=O)Cc2ccccc2)s1 | > 46.7
COc1ccc(C(=O)N2CCC(c3ccccc3)CC2)c(OC)c1OC | 47.6 (≈ 134 µM)
O=C(NCC1CCCCC1)c1ccc(F)cc1Cl | 20.4 (≈ 75.6 µM)
CC1CCCN(C(=O)c2ccc3c(c2)OCO3)C1 (stereo not given) | > 37.1
O=C(N/N=C/C1CC2CCC1C2)C1CC1 (stereo not given) | > 30.9
O=C(COC(=O)c1ccc2c(c1)OCCO2)NCCc1ccccc1 | 11.7 (≈ 34.3 µM)
CC(=O)N1CCC(C(=O)NCCOc2cccc(C)c2)CC1 | > 45.7
Cc1ccc(S(=O)(=O)CC(=O)Nc2ccc(Cl)cn2)cc1 | 5.4 (≈ 16.6 µM)
Cc1ccc2c(c1)N(CC(=O)NC1CCCC1)C(=O)CO2 | > 43.3
Cc1cccc(NC(=O)NC2CCCCCCC2)c1C | 0.6 (≈ 2.19 µM)
COc1ccccc1NC(=O)CC(c1ccc(F)cc1)c1ccco1 (stereo not given) | 21.2 (≈ 62.5 µM)
Cc1cccc(NC(=S)N(CCc2ccncc2)C(C)C)c1C | 32.5 (≈ 99.2 µM)
CCOC(=O)c1cc(/C(C)=N/OC(=O)c2ccc(Cl)cc2)on1 | 0.6 (≈ 1.78 µM)
CN1C(=O)CSC1=Nc1cccc(C(=O)O)c1 | > 37.5
CC(C(=O)Nc1ccc(F)c(F)c1F)N(C)CCOc1ccccc1 (stereo not given) | 13.6 (≈ 38.6 µM)
N=c1oc2cc(O)ccc2cc1C(=O)Nc1ccc(Cl)cc1 | 1.1 (≈ 3.5 µM)
O=C(OCC(=O)N1CCCC1)c1cnc(Cl)c(Cl)c1 | > 45.5
CC(=O)c1cccc(NC(=O)CO/N=C2/CCCc3nonc32)c1 | 45.7 (≈ 139 µM)
CCOC(=O)c1cnc2ccccc2c1NCc1ccco1 | 11.3 (≈ 38.1 µM)
CCOc1cccc(C2C(C(=O)c3ccc(C)o3)=C(O)C(=O)N2Cc2ccccc2)c1 (stereo not given) | 62.5 (≈ 150 µM)
CCn1ccc(-c2ccccc2)c(C#N)c1=O | > 33.6

Compound | solubility kinetic [µg/mL]
CCCn1c(=S)[nH]c2cc(Cl)ccc21 | 32.3 (≈ 142 µM)
C=CCOc1cccc(C2NC(=O)c3ccccc3O2)c1 (stereo not given) | 3 (≈ 10.7 µM)
O=C(O)c1ccc(NC2=Nc3cccc4cccc2c34)cc1 | 36 (≈ 125 µM)
Cc1c(Cl)cccc1NC(=O)CSC(N)=O | 15.6 (≈ 60.3 µM)
CCN(CC(=O)Nc1cc(Cl)ccc1C)C(=O)CC1CCCC1 | > 50.5
CCN(CC)C(=O)c1cccc(NC(=O)C2CCN(C(=O)c3cccs3)CC2)c1 | > 62
O=C(c1ccco1)N1CCN(C(=O)N2CCCC2)CC1 | 38.7 (≈ 140 µM)
O=S(=O)(c1ccccc1)N1CCN(Cc2c(O)ccc3ccccc23)CC1 | 6.6 (≈ 17.3 µM)
CCCCOc1cc(C(=O)OCCN(CC)CC)ccc1N | 42.7 (≈ 138 µM)
COc1ccccc1CCNS(=O)(=O)c1cn(C)nc1C | > 46.4
CC(OC(=O)c1cccs1)C(=O)NCCc1ccccc1 (stereo not given) | > 45.5
O=c1[nH]c(NCCO)c(N=Cc2ccccc2)c(=O)[nH]1 | > 41.1
CSc1ccc(C2CC(=O)Nc3c2c(=O)n(C)c(=O)n3C)cc1 (stereo not given) | > 49.7
COc1ccc(C(=O)CCC(=O)Nc2cccnc2)cc1OC | > 47.2
C/C(=N\Nc1ccc2nncn2n1)c1cccs1 | > 38.7
CSc1ncccc1C(=O)OCC(=O)c1ccc(C)s1 | 3.5 (≈ 11.4 µM)
COc1ccccc1Oc1nc([N+](=O)[O-])nn1CC(N)=O | > 44
Cc1ccc(OCC(=O)Nc2ccccc2C(=O)NC2CC2)cc1C | 0.8 (≈ 2.36 µM)
O=C(COC(=O)CCC1CCCC1)Nc1ccc(F)cc1 | 5.9 (≈ 20.1 µM)
CCCC(C(=O)Nc1ccc2c(C)cc(=O)oc2c1)c1ccccc1 (stereo not given) | 2.9 (≈ 8.65 µM)
COc1cccc(OC)c1C(=O)NC(C)CCc1ccccc1 (stereo not given) | 44.2 (≈ 141 µM)
Cl.OCCNc1nc(N2CCCCC2)nc2ccccc12 | > 46.3
CC(C)COC(=O)c1ccc(N2C(=O)c3ccccc3C2=O)cc1 | 2.1 (≈ 6.49 µM)
Cc1ccc(-c2cn3cc(C)ccc3n2)cc1 | 1.6 (≈ 7.2 µM)

Compound | solubility kinetic [µg/mL]
O=C(COC(=O)/C=C/c1ccc([N+](=O)[O-])cc1)NC(=O)NC1CCCCC1 | 3.7 (≈ 9.86 µM)
CC(=NCCc1ccccc1)c1c(O)n(C)c(=O)n(C)c1=O | 37.2 (≈ 123 µM)
O=C(Nc1cccc(S(=O)(=O)N2CCCCC2)c1)C1CC1 | > 46.3
Cc1cc(F)c(F)c(C(=O)N2CCCCC2C)c1Cl (stereo not given) | 34.6 (≈ 120 µM)
COc1ccccc1N1CN(S(=O)(=O)c2ccc(C)cc2)c2nc3ccccc3nc21 | 1 (≈ 2.31 µM)
COCCN(CCOC)C(=O)Nc1ccc(Cl)cc1 | > 43
Cc1ccc(N2C(=O)N(C(C)C)C(C)(C)CC2(C)O)cc1 (stereo not given) | > 43.6
CSc1ccc(C2N=C(c3ccccc3)NO2)cc1 (stereo not given) | 11.9 (≈ 44 µM)
S=C(Nc1ccc2[nH]ccc2c1)NC1CCCCC1 | 37 (≈ 135 µM)
O=C1CN(C(=O)COC(=O)Cc2ccccc2F)c2ccccc2N1 | > 51.3
Cc1cc(C)c(OCCN(C)C)c(Cl)c1.O=C(O)C(=O)O | > 47.7
COc1cc(C2NC(=O)NC(C)=C2[N+](=O)[O-])cc(OC)c1OC (stereo not given) | 47.3 (≈ 146 µM)
CCN1C(=O)N(c2ccc(C(C)=O)cc2)S(=O)(=O)c2ccccc21 | 47.6 (≈ 138 µM)
Cc1cccc(C(=O)Nc2ccc(C(=O)c3ccccc3)cc2)c1 | < 0.7
COc1ccccc1Cn1c(C(C)C)nc2ccccc21 | > 42.1
CN=C(Nc1cccc(S(=O)(=O)N2CCOCC2)c1)c1ccccc1 | 17.2 (≈ 47.9 µM)
CCOc1cnc(-c2c(-c3c(F)cccc3Cl)noc2C)o1 | 9.1 (≈ 28.2 µM)
N#Cc1ccsc1NC(=O)CCS(=O)(=O)c1ccccc1 | 41.7 (≈ 130 µM)
CCOC(=O)C1CCCN(CC(=O)c2c[nH]c3ccc(C)cc23)C1 (stereo not given) | 46.5 (≈ 142 µM)
O=c1[nH]c2ccc(S(=O)(=O)NCc3ccccc3)cc2[nH]1 | 22.5 (≈ 74.2 µM)
Cc1cc(C(=O)Nc2ccccc2)oc(=O)c1 | 25.9 (≈ 113 µM)
O=C(NC1CCN(Cc2ccccc2)CC1)c1ccccc1Cl | 35.7 (≈ 109 µM)
CC(C)c1ccc(OCC(=O)NCc2ccccc2)cc1 | 3.2 (≈ 11.3 µM)
O=C(COC(=O)c1ccccc1O)Nc1ccc2ccccc2c1 | 6.2 (≈ 19.3 µM)
